Literature values as cited in patent EP2742940A1, “Salts of aza-bicyclo-di-aryl ethers for adminstration once daily, twice daily or thrice daily” (IP Gesellschaft für Management mbH, priority 2012, dated 2014).
“And” between values parts separate entries of the source, which are not always exact repeats. Equal values may be shown once. Read-outs that look alike come from different tables or passages of the source.

What was measured:
A375 cells = conditions: XTT, three days after compound addition
[1] = rat; for %F: p.o. (3 mg/kg); for PK-parameters compared to Example 1: one-way analysis of variance
P-Erk = conditions: A375 cells, P-Erk In-Cell-Western, 3 hrs treatment
BRAF-MEK-ERK cascade = BRAF-MEK-ERK cascade assay, mean ± SEM, n=3
[2] = set-up: Initial water content / Hygroscopy @ 85%RH: unit not given here; conditions: for Initial water content: Example 7 comparison of salt forms; for moisture gain: at 85% RH
[3] = dogs (N=3), 1.4 µmol/kg p.o.
DUSP6 = conditions: A375 tumor bearing athymic-nude rats, single oral dose, at 12h and 24h (p=0.003 and p=0.006), two-way analysis of variance
[4] = at 65°C
[5] = male Wistar rats, oral 10 mg/kg, Mean All (n=8)
[6] = male Wistar rats, oral 10 mg/kg, Median [range]
[7] = male Wistar rats, oral 10 mg/kg, individual rats 01-08, listed as mono-fumarate, 10 mg/kg

Q: With `O=S(=O)(Nc1c(Nc2ccc(I)cc2F)c(F)c(F)c2ccoc12)C1(CC(O)CO)CC1` (racemic) [Example 1, N-(4,5-difluoro-6-((2-fluoro-4-iodophenyl)amino)benzofuran-7-yl)-1-(2,3-dihydroxypropyl)cyclopropane-1-sulfonamide] as the compound, how does the GI50 (A375 cells) read?
A: 17.6 nM

Q: And the “%F” value [1]?
A: 87%

Q: And the EC50 (P-Erk)?
A: 12.2 nM

Q: What about the IC50 (BRAF-MEK-ERK cascade) of the same compound?
A: 2.1 ± 0.58 nM

Q: Which results are given for `Cc1ccc(-c2ccc(O[C@H]3CN4CCC3CC4)cn2)cc1.O=C(O)/C=C/C(=O)O` [Compound B, fumarate salt of (R)-3-(6-(4-methylphenyl)-pyridin-3-yloxy)-1-aza-bicyclo[2.2.2]octane]?
A: Hygroscopy @ 85%RH [2]: 0.5; Initial water content [2]: <0.5; moisture gain [2]: 0.5%; Plasma (pmoles/ml±SD) ([3]; 0.5 hour): 49.4 ± 21.9 pmol/mL; Plasma (pmoles/ml±SD) ([3]; 1 hour): 67.6 ± 22.6 pmol/mL; Plasma (pmoles/ml±SD) ([3]; 2 hour): 75.2 ± 36.8 pmol/mL; Plasma (pmoles/ml±SD) ([3]; 4 hour): 27.5 ± 13.3 pmol/mL; Plasma (pmoles/ml±SD) ([3]; 8 hour): 8.1 ± 3.0 pmol/mL; Plasma (pmoles/ml±SD) ([3]; 24 hour): 0.8 ± 0.7 pmol/mL; Plasma (pmoles/ml±SD) ([3]; fumarate salt form, 0.25 hour): 14.7 ± 1.1 pmol/mL; T1/2 (male Wistar rats, oral 10 mg/kg, Mean All): 3.76 h; AUClast [5]: 249 ng·h/mL; AUClast/Dose (h·ng/mL)/(mg/kg) [5]: 25.4 (h·ng/mL)/(mg/kg); Cmax [5]: 161 ng/mL; Cmax/Dose (ng/mL)/(mg/kg) [5]: 16.5 (ng/mL)/(mg/kg); Concentration in plasma, Time (h) 0.25 [5]: 149 ng/mL; Concentration in plasma, Time (h) 0.5 [5]: 132 ng/mL; Concentration in plasma, Time (h) 1 [5]: 77.4 ng/mL; Concentration in plasma, Time (h) 2 [5]: 38.9 ng/mL; Concentration in plasma, Time (h) 3 [5]: 19.5 ng/mL; Concentration in plasma, Time (h) 4 [5]: 10.6 ng/mL; Concentration in plasma, Time (h) 6 [5]: 5.10 ng/mL; Concentration in plasma, Time (h) 8 [5]: 2.54 ng/mL; Concentration in plasma, Time (h) 24 [5]: 0320 ng/mL; Tlast [6]: 24.0 h; Tmax [6]: 0.25 h; AUClast [7]: 202 ng·h/mL and 259 ng·h/mL and 212 ng·h/mL and 188 ng·h/mL and 269 ng·h/mL and 292 ng·h/mL and 298 ng·h/mL and 272 ng·h/mL; AUClast/Dose (h·ng/mL)/(mg/kg) [7]: 20.8 (h·ng/mL)/(mg/kg) and 26.3 (h·ng/mL)/(mg/kg) and 21.4 (h·ng/mL)/(mg/kg) and 192 (h·ng/mL)/(mg/kg) and 28.0 (h·ng/mL)/(mg/kg) and 30.1 (h·ng/mL)/(mg/kg) and 29.6 (h·ng/mL)/(mg/kg) and 27.9 (h·ng/mL)/(mg/kg); Cmax [7]: 167 ng/mL and 162 ng/mL and 78.4 ng/mL and 99.7 ng/mL and 242 ng/mL and 204 ng/mL and 184 ng/mL and 153 ng/mL; Cmax/Dose (ng/mL)/(mg/kg) [7]: 17.2 (ng/mL)/(mg/kg) and 16.4 (ng/mL)/(mg/kg) and 7.88 (ng/mL)/(mg/kg) and 102 (ng/mL)/(mg/kg) and 25.2 (ng/mL)/(mg/kg) and 21.1 (ng/mL)/(mg/kg) and 18.3 (ng/mL)/(mg/kg) and 15.7 (ng/mL)/(mg/kg); Concentration in plasma, Time (h) 0.25 [7]: 167 ng/mL and 162 ng/mL and 77.8 ng/mL and 890 ng/mL and 242 ng/mL and 204 ng/mL and 93.3 ng/mL and 153 ng/mL; Concentration in plasma, Time (h) 0.5 [7]: 104 ng/mL and 130 ng/mL and 784 ng/mL and 99.7 ng/mL and 143 ng/mL and 179 ng/mL and 184 ng/mL and 138 ng/mL; Concentration in plasma, Time (h) 1 [7]: 67.1 ng/mL and 88.8 ng/mL and 41.3 ng/mL and 62.8 ng/mL and 83.2 ng/mL and 80.8 ng/mL and 101 ng/mL and 94.2 ng/mL; Concentration in plasma, Time (h) 2 [7]: 27.4 ng/mL and 39.2 ng/mL and 378 ng/mL and 24.6 ng/mL and 47.1 ng/mL and 37.6 ng/mL and 54.8 ng/mL and 42.6 ng/mL; Concentration in plasma, Time (h) 3 [7]: 12.4 ng/mL and 17.7 ng/mL and 25.3 ng/mL and 11.7 ng/mL and 19.6 ng/mL and 20.6 ng/mL and 25.1 ng/mL and 23.2 ng/mL; Concentration in plasma, Time (h) 4 [7]: 906 ng/mL and 10.6 ng/mL and 13.3 ng/mL and 5.90 ng/mL and 9.71 ng/mL and 11.8 ng/mL and 13.0 ng/mL and 11.1 ng/mL; Concentration in plasma, Time (h) 6 [7]: 749 ng/mL and 3.47 ng/mL and 7.63 ng/mL and 5.79 ng/mL and 4.29 ng/mL and 4.24 ng/mL and 4.05 ng/mL and 3.87 ng/mL; Concentration in plasma, Time (h) 8 [7]: 291 ng/mL and 2.35 ng/mL and 3.62 ng/mL and 2.62 ng/mL and 2.46 ng/mL and 1.94 ng/mL and 238 ng/mL and 207 ng/mL; T1/2 [7]: 2.44 h and 5.02 h and 3.62 h and 3.71 h and 2.02 h and 3.97 h and 5.51 h; Tlast [7]: 8.0 h (2×) and 24.0 h (6×); Tmax [7]: 0.25 h (3×) and 025 h (2×) and 0.50 h (3×); AUClast (rats, acute oral dosing of 10 mg/kg): 249+-42 h ng/ml; Cmax of the free form in plasma (rats, acute oral dosing of 10 mg/kg (relative to free form)): 161+-53 ng/ml

Q: Which GI50 (A375 cells) does the source give for `O=S(=O)(Nc1c(Nc2ccc(I)cc2F)c(F)c(F)c2ccoc12)C1(C[C@H](O)CO)CC1` [Example 1A, (S)-N-(4,5-difluoro-6-((2-fluoro-4-iodophenyl)amino)benzofuran-7-yl)-1-(2,3-dihydroxypropyl)cyclopropane-1-sulfonamide] here?
A: 13.4 nM

Q: And the “PK-parameters compared to Example 1” value [1]?
A: improved PK-parameters

Q: And the “%F” value [1]?
A: 132%

Q: What about the EC50 (P-Erk) of the same compound?
A: 6.4 nM

Q: What about the “lowering levels of DUSP-6 in tumor” value (DUSP6) of the same compound?
A: significantly more effective than Example- IB

Q: What about the IC50 (BRAF-MEK-ERK cascade) of the same compound?
A: 2 ± 0.25 nM

Q: For `O=S(=O)(Nc1c(Nc2ccc(I)cc2F)c(F)c(F)c2ccoc12)C1(C[C@@H](O)CO)CC1` [Example 1B, (R)-N-(4,5-difluoro-6-((2-fluoro-4-iodophenyl)amino)benzofuran-7-yl)-1-(2,3-dihydroxypropyl)cyclopropane-1-sulfonamide], which GI50 (A375 cells) is on record?
A: 29.6 nM

Q: And the “PK-parameters compared to Example 1” value [1]?
A: improved PK-parameters

Q: And the “%F” value [1]?
A: 126%

Q: And the EC50 (P-Erk)?
A: 15.6 nM

Q: What does the source list for `Cc1ccc(-c2ccc(O[C@H]3CN4CCC3CC4)cn2)cc1.Cl` [Hydrochloride, Form A, chloride salt (hydrochloride) of (R)-3-(6-(4-methylphenyl)-pyridin-3-yloxy)-1-aza-bicyclo[2.2.2]octane]?
A: Hygroscopy @ 85%RH [2]: ∼5; Initial water content [2]: ∼5; moisture gain [2]: about 5%

Q: With `Cc1ccc(-c2ccc(O[C@H]3CN4CCC3CC4)cn2)cc1.O=C(O)/C=C\C(=O)O` [Maleate, maleate salt of (R)-3-(6-(4-methylphenyl)-pyridin-3-yloxy)-1-aza-bicyclo[2.2.2]octane] as the compound, how does the “Hygroscopy @ 85%RH” value [2] read?
A: 0.3

Q: And the Initial water content [2]?
A: <0.1

Q: And the moisture gain [2]?
A: 0.3%

Q: What does the source list for `Cc1ccc(-c2ccc(O[C@H]3CN4CCC3CC4)cn2)cc1.O=C(O)CC(=O)O` [Malonate, malonate salt of (R)-3-(6-(4-methylphenyl)-pyridin-3-yloxy)-1-aza-bicyclo[2.2.2]octane]?
A: Hygroscopy @ 85%RH [2]: 1.3; Initial water content [2]: ∼0; moisture gain [2]: 1.3%

Q: Which results are given for `Cc1ccc(-c2ccc(O[C@H]3CN4CCC3CC4)cn2)cc1.O=P(O)(O)O` [Phosphate, Form A, phosphate salt of (R)-3-(6-(4-methylphenyl)-pyridin-3-yloxy)-1-aza-bicyclo[2.2.2]octane]?
A: Hygroscopy @ 85%RH [2]: 0.2; Initial water content [2]: ∼0.5; moisture gain [2]: 0.2%

Q: For `Cc1ccc(-c2ccc(O[C@H]3CN4CCC3CC4)cn2)cc1.O=C(O)CCC(=O)O` [Succinate, succinate salt of (R)-3-(6-(4-methylphenyl)-pyridin-3-yloxy)-1-aza-bicyclo[2.2.2]octane], which “Hygroscopy @ 85%RH” value [2] is on record?
A: 0.3

Q: What about the Initial water content [2] of the same compound?
A: ∼4.5

Q: What about the moisture gain [2] of the same compound?
A: 0.3%

Q: For `Cc1cn(-c2cc(NC(=O)c3ccc(C)c(Nc4nccc(-c5cccnc5)n4)c3)cc(C(F)(F)F)c2)cn1` [nilotinib, 4-methyl-3-[[4-(3-pyridinyl)-2-pyrimidinyl]amino]-N-[5-(4-methyl-1 H-imidazol-1-yl)-3-(trifluoromethyl)phenyl] benzamide], which “solubility in lactic acid” value [4] is on record?
A: > 600 mg/mL
